# Assay results taken from patent US20240316047A1, “INHIBITORS OF RNA HELICASE DHX9 AND USES THEREOF” (ACCENT THERAPEUTICS, INC., priority 2022, published 2024).
# Biological target: Human recombinant DHX9 protein (Homo sapiens (Human), UniProt Q08211)
# Assay: DHX9 ATPase assay (ADP-Glo)
# Assay type: biochemical
# Conditions: for IC50: read-out: DHX9 Biochemical Inflection Point
# Sequence of Human recombinant DHX9 protein (Q08211 whole entry): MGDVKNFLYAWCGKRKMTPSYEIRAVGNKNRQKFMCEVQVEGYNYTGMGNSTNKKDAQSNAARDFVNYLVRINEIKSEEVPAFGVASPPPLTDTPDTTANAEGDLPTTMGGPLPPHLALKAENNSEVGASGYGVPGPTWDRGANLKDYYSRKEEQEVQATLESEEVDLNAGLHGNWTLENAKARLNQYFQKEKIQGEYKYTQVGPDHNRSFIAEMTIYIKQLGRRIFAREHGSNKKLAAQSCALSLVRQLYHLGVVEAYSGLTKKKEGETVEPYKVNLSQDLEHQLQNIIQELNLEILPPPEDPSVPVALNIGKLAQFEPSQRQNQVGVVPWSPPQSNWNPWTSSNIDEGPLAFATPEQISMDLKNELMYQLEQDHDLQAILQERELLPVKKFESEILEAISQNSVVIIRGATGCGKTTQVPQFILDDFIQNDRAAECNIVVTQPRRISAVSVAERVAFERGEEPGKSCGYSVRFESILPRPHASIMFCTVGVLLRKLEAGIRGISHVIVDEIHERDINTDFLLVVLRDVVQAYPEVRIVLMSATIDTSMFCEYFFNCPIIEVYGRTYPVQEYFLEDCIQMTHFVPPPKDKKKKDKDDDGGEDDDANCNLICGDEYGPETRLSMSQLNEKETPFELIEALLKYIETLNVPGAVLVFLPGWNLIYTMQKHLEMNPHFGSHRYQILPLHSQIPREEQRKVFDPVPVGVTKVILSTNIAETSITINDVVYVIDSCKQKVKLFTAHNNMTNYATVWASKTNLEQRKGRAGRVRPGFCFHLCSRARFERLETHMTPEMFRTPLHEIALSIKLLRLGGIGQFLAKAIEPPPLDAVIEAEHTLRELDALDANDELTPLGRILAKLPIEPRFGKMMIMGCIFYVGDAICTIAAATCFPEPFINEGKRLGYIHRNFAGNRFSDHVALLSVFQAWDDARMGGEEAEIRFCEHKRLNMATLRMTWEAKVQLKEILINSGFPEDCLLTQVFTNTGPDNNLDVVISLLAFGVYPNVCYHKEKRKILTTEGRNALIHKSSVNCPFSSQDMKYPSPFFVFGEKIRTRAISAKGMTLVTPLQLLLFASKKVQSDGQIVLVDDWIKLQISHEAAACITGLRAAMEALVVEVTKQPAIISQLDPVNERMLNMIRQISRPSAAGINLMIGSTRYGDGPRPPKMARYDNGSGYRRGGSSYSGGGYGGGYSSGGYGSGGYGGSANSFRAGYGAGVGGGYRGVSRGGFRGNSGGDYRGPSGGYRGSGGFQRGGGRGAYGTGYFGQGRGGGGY
SMILES,DHX9 Biochemical Max Inhibition [%],IC50 [nM]
CC(Oc1cccnc1-n1cc(C(=O)Nc2cc(Cl)cc(NS(C)(=O)=O)c2)cn1)c1ccccc1 (centres unmarked) [Example 62],58.4,211
CS(=O)(=O)Nc1cc(Cl)cc(NC(=O)c2cnn(-c3ncccc3OCc3ccccn3)c2)c1 [Example 63],66.2,83.9
CS(=O)(=O)Nc1cc(Cl)cc(NC(=O)c2cnn(-c3ncccc3OCc3ccncc3)c2)c1 [Example 64],61.8,59.9
CS(=O)(=O)Nc1cc(Cl)cc(NC(=O)c2cnn(-c3ncccc3OCc3cccc(F)c3)c2)c1 [Example 65],72.6,5.5
CS(=O)(=O)Nc1cc(Cl)cc(NC(=O)c2cnn(-c3ncccc3OCc3cnco3)c2)c1 [Example 66],62.9,56.6
CS(=O)(=O)Nc1cc(Cl)cc(NC(=O)c2cnn(-c3ncccc3OCc3ccc(F)cc3)c2)c1 [Example 69],62.3,113
CS(=O)(=O)Nc1cc(Cl)cc(NC(=O)c2cnn(-c3ncccc3OCc3cccc(Cl)c3)c2)c1 [Example 70],78.9,8.5
"CS(=O)(=O)Nc1cc(F)cc(NC(=O)c2cc(Br)cs2)c1 [Example 71, 4-bromo-N-(3-fluoro-5-(methylsulfonamido)phenyl)thiophene-2-carboxamide]",77.8,171
Cc1cccnc1-c1cc(C(=O)Nc2cc(Cl)cc(NS(C)(=O)=O)c2)cn1C [Example 81],66.7,
Cn1cc(C(=O)Nc2cc(Cl)cc(NS(C)(=O)=O)c2)cc1-c1ncccn1 [Example 82],69.4,9.2
"Cn1cc(C(=O)Nc2cc(Cl)cc(NS(C)(=O)=O)c2)cc1Br [Example 83, 5-bromo-N-(3-chloro-5-(methylsulfonamido)phenyl)-1-methyl-1H-pyrrole-3-carboxamide]",60.7,47.8
"Cc1cccnc1-c1cc(C(=O)Nc2cc(Br)cc(NS(C)(=O)=O)c2)cn1C [Example 84, N-(3-bromo-5-(methylsulfonamido)phenyl)-1-methyl-5-(3-methylpyridin-2-yl)-1H-pyrrole-3-carboxamide]",66.7,10.1
"Cc1cc(C(=O)Nc2cc(Br)cc(NS(C)(=O)=O)c2)cn1C1CCCCC1 [Example 85, N-(3-bromo-5-(methylsulfonamido)phenyl)-1-cyclohexyl-5-methyl-1H-pyrrole-3-carboxamide]",59.5,99
"CC(=O)N1CCN(c2ccc(-n3cc(C(=O)Nc4cc(Br)cc(NS(C)(=O)=O)c4)cn3)nc2)CC1 [Example 86, 1-(5-(4-acetylpiperazin-1-yl)pyridin-2-yl)-N-(3-bromo-5-(methylsulfonamido)phenyl)-1H-pyrazole-4-carboxamide]",51.5,18.4
CC(=O)N1CCN(c2cnc(-n3cc(C(=O)Nc4cc(Br)cc(NS(C)(=O)=O)c4)cn3)c(C)c2)CC1 [Example 87],55.7,26.1
CN1CCN(c2ccc(-n3cc(C(=O)Nc4cc(Br)cc(NS(C)(=O)=O)c4)cn3)nc2)CC1=O [Example 88],54.2,7.1
CN(C)C(=O)N1CCN(c2ccc(-n3cc(C(=O)Nc4cc(Cl)cc(NS(C)(=O)=O)c4)cn3)nc2)CC1 [Example 89],64.9,14.4
CS(=O)(=O)Nc1cc(Cl)cc(NC(=O)c2cnn(-c3ccc(N4CCCC4=O)cn3)c2)c1 [Example 90],61.5,24
CS(=O)(=O)Nc1cc(Cl)cc(NC(=O)c2cnn(-c3cc(N4CCOCC4)ccn3)c2)c1 [Example 91],59.7,27.9
CC1CN(c2ccc(-n3cc(C(=O)Nc4cc(Cl)cc(NS(C)(=O)=O)c4)cn3)nc2)CCO1 (centres unmarked) [Example 92],61.1,22.1
Cc1cc(C(=O)Nc2cc(Cl)cc(NS(C)(=O)=O)c2)cn1-c1ccc(N2CCOCC2)cn1 [Example 93],70.6,1.7
Cc1cc(C(=O)Nc2cc(Cl)cc(NS(C)(=O)=O)c2)cn1-c1ccc(N2CCN(C)C(=O)C2)cn1 [Example 94],72.4,1.8
"CS(=O)(=O)Nc1cc(Br)cc(NC(=O)c2cc(-c3ccccn3)n(CC#N)c2)c1 [Example 95, N-(3-bromo-5-methanesulfonamidophenyl)-1-(cyanomethyl)-5-(pyridin-2-yl)-1H-pyrrole-3-carboxamide]",59.2,20.5
"Cc1cccnc1-c1nc(C(=O)Nc2cc(Br)cc(NS(C)(=O)=O)c2)cn1C [Example 96, N-(3-bromo-5-(methylsulfonamido)phenyl)-1-methyl-2-(3-methylpyridin-2-yl)-1H-imidazole-4-carboxamide]",52.8,253
"CS(=O)(=O)Nc1cc(Br)cc(NC(=O)c2cnn(-c3ccccc3C(O)C(F)(F)F)c2)c1 (centres unmarked) [Example 103, N-(3-bromo-5-(methylsulfonamido)phenyl)-1-(2-(2,2,2-trifluoro-1-hydroxyethyl)phenyl)-1H-pyrazole-4-carboxamide]",49.5,452
"CS(=O)(=O)Nc1cc(F)cc(NC(=O)c2cc(-c3cccnc3)cs2)c1 [Example 105, N-(3-fluoro-5-(methylsulfonamido)phenyl)-4-(pyridin-3-yl)thiophene-2-carboxamide]",71.7,80.3

# The remaining lines, values ahead:
DHX9 Biochemical Max Inhibition [%],IC50 [nM],SMILES
63,7.8,CS(=O)(=O)Nc1cc(Br)cc(NC(=O)c2cc(-n3cccn3)cs2)c1 [Example 60]
54,154,CS(=O)(=O)Nc1cc(Br)cc(NC(=O)c2cnn(-c3cc(C#N)ccc3OCc3ccccc3)c2)c1 [Example 67]
68.7,23.8,CS(=O)(=O)Nc1cc(Cl)cc(NC(=O)c2cnn(-c3ncccc3OCc3ccccc3)c2)c1 [Example 68]
67.2,378,CCS(=O)(=O)Nc1cc(F)cc(NC(=O)c2cc(Br)cs2)c1 [Example 72]
63,189,CS(=O)(=O)Nc1cc(F)cc(NC(=O)c2cc(-c3ccccc3)cs2)c1 [Example 73]
57.7,255,CCS(=O)(=O)Nc1cc(F)cc(NC(=O)c2cc(-c3ccccc3)cs2)c1 [Example 74]
55.5,,CS(=O)(=O)Nc1cc(Cl)cc(NC(=O)c2cc(-c3ccccc3)cs2)c1 [Example 75]
56.2,31.9,CS(=O)(=O)Nc1cc(Br)cc(NC(=O)c2cc(-c3cccnc3)cs2)c1 [Example 78]
67.8,146,"CCn1cc(C(=O)Nc2cc(Cl)cc(NS(C)(=O)=O)c2)cc1-c1ccccc1 [Example 79, N-(3-chloro-5-(methylsulfonamido)phenyl)-1-ethyl-5-phenyl-1H-pyrrole-3-carboxamide]"
71.2,493,CS(=O)(=O)Nc1cc(Cl)cc(NC(=O)c2cc(-c3ccccc3)n(CC(F)(F)F)c2)c1 [Example 80]
50.9,298,"CS(=O)(=O)Nc1cc(Br)cc(NC(=O)c2ccc3c(c2)[nH]c(=O)n3Cc2ccccc2)c1 [Example 99, 1-benzyl-N-(3-bromo-5-(methylsulfonamido)phenyl)-2-oxo-2,3-dihydro-1H-benzo[d]imidazole-5-carboxamide]"
61.8,762,"CS(=O)(=O)Nc1cc(Cl)cc(NC(=O)c2cccc(-c3ccnc(Cl)c3)c2)c1 [Example 102, N-(3-chloro-5-(methylsulfonamido)phenyl)-3-(2-chloropyridin-4-yl)benzamide]"
68,61,"CS(=O)(=O)Nc1cc(Br)cc(NC(=O)c2cc(Cc3ccc[nH]3)cs2)c1 [Example 104, 4-((1H-pyrrol-2-yl)methyl)-N-(3-bromo-5-(methylsulfonamido)phenyl)-thiophene-2-carboxamide]"
58.7,78,CS(=O)(=O)Nc1cc(Cl)cc(NC(=O)c2cc(-c3ccccc3O)cs2)c1 [Example 106]
59.8,210,CS(=O)(=O)Nc1cc(Cl)cc(NC(=O)c2cc(-c3cccc(F)c3)cs2)c1 [Example 108]
57.2,17.6,Cn1cc(C(=O)Nc2cc(Cl)cc(NS(C)(=O)=O)c2)cc1-c1ccccc1 [Example 109]
53.7,40,CCS(=O)(=O)Nc1cc(Cl)cc(NC(=O)c2cc(-c3cccnc3)cs2)c1 [Example 110]
68.2,250,CS(=O)(=O)Nc1cc(Cl)cc(NC(=O)c2cc(-c3ccccc3OCc3ccccc3)cs2)c1 [Example 111]
65.9,40,CCS(=O)(=O)Nc1cc(F)cc(NC(=O)c2cc(-c3ccccn3)cs2)c1 [Example 113]
66.4,43.5,CS(=O)(=O)Nc1cc(F)cc(NC(=O)c2cc(-c3ccccc3O)cs2)c1 [Example 114]
56.6,,"CS(=O)(=O)Nc1cc(Cl)cc(NC(=O)c2cc(-c3cccnc3)cs2)c1 [Example 116, N-(3-chloro-5-(methylsulfonamido)phenyl)-4-(pyridin-3-yl)thiophene-2-carboxamide]"
55.5,104,CS(=O)(=O)Nc1cc(Cl)cc(NC(=O)c2cccc(-n3cccn3)c2)c1 [Example 117]
55.8,45.1,CS(=O)(=O)Nc1cc(Br)cc(NC(=O)c2cccc(-n3cccn3)c2)c1 [Example 118]
